Measurements taken from patent US11458132B2, “Quinolin-2(1H)-one inhibitors of Late SV40 Factor” (TRUSTEES OF BOSTON UNIVERSITY, priority 2020, dated 2022).

Legend:
FH-B cells = experiment: Cell spreading area / cell compaction by microscopy; assay type: cell-based, human
Experimental: Cells were washed as before, treated with Phalloidin-iFluor 488 Reagent (abcam, ab176753) for 1 hour in 1-5% BSA in PBS, followed by Hoechst 33342 (Thermo Fisher Scientific, H3570) for 5 minutes. Mounting medium (Fisher Scientific, P10144) and cover slips were applied onto dried cells. Individually discernible cells were imaged on an Olympus Fluoview 10i. Using ImageJ, the phalloidin channel was thresholded and area and circularity values were measured and integrated into swarmplots using Python's seaborn library.
For time lapse microscopy, FH-B cells in high μ-dishes were incubated with CellBrite™ Steady Membrane stain (Biotium, 30108-T) for 30-40 minutes in the environmental chamber of a Nikon C2 Si microscope at 37° C. and 5% CO2. Treatments were added to the cells through a syringe to reach final concentrations of 4 μM FQI1 or 0.01% DMSO. Immediately thereafter, a time-lapse series was acquired by imaging every 30 seconds for 30 minutes at 20× magnification.

LSF = target: T1, LSF (Homo sapiens, UniProt Q12800); experiment: Cellular thermal shift assay (CETSA) in Huh7 cells; assay type: binding; settings: 50 μM, three hours, vs DMSO
T1 construct: Representative immunoblots of soluble LSF after treatment with FQI2-34 versus DMSO; endogenous in cells; host or cells: Huh7
T1 sequence (Q12800 1-502): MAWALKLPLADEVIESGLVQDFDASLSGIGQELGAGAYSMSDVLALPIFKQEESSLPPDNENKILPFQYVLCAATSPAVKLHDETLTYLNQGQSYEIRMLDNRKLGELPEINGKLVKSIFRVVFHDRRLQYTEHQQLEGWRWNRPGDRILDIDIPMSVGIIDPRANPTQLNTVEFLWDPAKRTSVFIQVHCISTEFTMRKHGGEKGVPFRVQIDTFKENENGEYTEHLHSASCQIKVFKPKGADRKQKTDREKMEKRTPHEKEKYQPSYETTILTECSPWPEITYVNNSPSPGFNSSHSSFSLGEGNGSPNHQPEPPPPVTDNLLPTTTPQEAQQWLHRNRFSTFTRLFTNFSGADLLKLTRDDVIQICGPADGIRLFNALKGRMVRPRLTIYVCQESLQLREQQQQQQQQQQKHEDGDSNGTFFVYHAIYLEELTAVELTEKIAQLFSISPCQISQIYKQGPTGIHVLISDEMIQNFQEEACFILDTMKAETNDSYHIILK
Experimental: Cellular Thermal Shift Assay (CETSA): Huh7 cells obtained from JCRB (Japanese Cancer Resources Bank) were cultured in DMEM medium (Corning) supplemented with 10% fetal bovine serum (Gibco). The cells were cultured at 37° C. in 5% CO2. Approximately 9×10^5 Huh7 cells were plated per 10 cm plate. After 20 hours, cells were treated for three hours with fresh media containing 50 μM FQI1, 50 μM FQI2-34, or 0.1% DMSO (FQI1 control) or 0.5% DMSO (FQI2-34 control). Subsequently, the cells were washed with PBS (137 mM NaCl, 2.7 mM KCl, 10 mM Na2HPO4, 2 mM KH2PO4, pH 7.2) supplemented with their respective treatments (FQI1, FQI2-34, or vehicle) and scraped from the dish in the presence of 5 mL of PBS supplemented with 1 mM Pefabloc (Sigma-Aldrich, 76307) plus the respective treatment. Pelleted cells were resuspended in 500 μL of PBS buffer with 1 mM Pefabloc plus the respective treatment. Aliquots of 50 μL of cell suspension from each treatment sample were incubated separately at the indicated temperatures for 3 minutes in a thermal cycler (Bio-rad, T100 Thermocyler), then cooled at the room temperature for 3 minutes. Lysates were prepared by four rounds of snap freezing and thawing. […] Films were scanned and band intensities were quantified by densitometry with Image J; a non-parametric t-test was used to determine statistical significance.

RPE cells = experiment: Wound healing assay; assay type: cell-based
Experimental: Wound healing analysis: Confluent RPE cells were synchronized by incubating with 2 mM thymidine for 18-20 hours. Two intersecting lines were drawn into the confluent cells using a pipette tip. A phase-contrast image was acquired of the intersection point (“0 h” time-point) on an Olympus IX50 inverted microscope, immediately followed by treatment with the respective inhibitor and 2 mM thymidine. Phase-contrast images of the intersection point were acquired every 2 hours for 12 hours, continuing incubation at 37° C. in 5% CO2 in-between time points. Using ImageJ, the distances between each pair of neighboring vertices of the intersection point at each time-point were measured and normalized to the “0 h” sample.
RPE-hTERT Flp-In cells, propagated in DME M:F12 media with 10% fetal bovine serum at 37° C. in a 5% CO2 humidified incubator, were grown to confluence in 6-well tissue culture plates. One day prior to performing the wound healing assay, the medium was exchanged to also include 2 mM thymidine, so that the cells would stop dividing.
A cross-shaped wound was scratched into each well, and the cells imaged by phase contrast microscopy using at 4× magnification using a Olympus IX50 Inverted microscope. Then the cell media was exchanged to include vehicle (DMSO at 0.01%), 50 nM FQI2-34, 100 nM FQI2-34, or 200 nM FQI2-34; 2 mM thymidine was maintained throughout, as well. Cells were imaged again at 2 h, 4h, 6h, and 8h, in order to measure the migration of the cells into the wound.
Each of the 4 lines across the vertices of the “X” were individually measured from each set of images using ImageJ. Relative distances of cell migration into the wound were obtained by subtracting each of the lengths for 2-8 hour timepoints from the length at the 0 hour timepoint for that line and that sample. The averages of the four changes in lengths per sample were then plotted over time for each concentration of FQI2-34, from […], using Prism software. Triplicate technical replicates were performed for each concentration.

Compound | effect of FQI1 on cell spreading area after taxol pretreatment (FH-B cells; 1 μM taxol 30 minutes, then 4 μM FQI1) | reduction in cell spreading area (FH-B cells; 4 μM FQI1, 30-60 minutes, vs vehicle) [fold] | reduction in cell spreading area (FH-B cells; Y-27632 pretreatment 30 minutes, then 4 μM FQI1 30 minutes) [fold] | decrease in median cell spreading area (FH-B cells; vehicle pretreatment 30 minutes, then 4 μM FQI1 10 or 30 minutes) [fold] | reduction in cell spreading area (FH-B cells; vehicle pretreatment (control group of Y-27632 experiment), 4 μM FQI1 30 minutes) [fold] | stability of LSF to thermal denaturation (LSF) | time by which inhibition of migration is detectable (RPE cells; 4 μM FQI1) [h] | migration of cells into the wound (RPE cells; 4 μM FQI1 or 1 μM nocodazole, monitored 12 hours) | decrease in cell spreading (FH-B cells; 200 nM FQI2-34, 30 minutes, vs vehicle) [fold] | fold lower concentration than the effective concentrations for FQI1 (cell compaction) (FH-B cells; 200 nM FQI2-34 vs 4 μM FQI1) [fold] | fold lower concentration than that used for FQI1 in the same assay (RPE cells) [fold] | concentration that effectively inhibits cell migration (RPE cells; 50, 100, 200 nM tested, 2-8 h) [nM]
CCOc1ccccc1C1CC(=O)Nc2cc3c(cc21)OCO3 (stereo not shown) [FQI1, 8-(2-ethoxyphenyl)-7,8-dihydro-[1,3]dioxolo[4,5-g]quinolin-6(5H)-one] | no detectable effect | 1.7 | 1.2 | 1.5 | 1.6 | enhanced the stability of LSF to thermal denaturation | ≤ 4 | hindered RPE cells from migrating into the wound | – | – | – | –
CCOc1cc(N(C)C)ccc1-c1cc(=O)[nH]c2cc3c(cc12)OCO3 [FQI2-34, 8-(4-(dimethylamino)-2-ethoxyphenyl)-[1,3]dioxolo[4,5-g]quinolin-6(5H)-one] | – | – | – | – | – | enhanced the stability of LSF to thermal denaturation | – | – | 2.1 | 20 | 20 | 200
